Assay results as given in PMC11965169, “Flavin-containing siderophore-interacting protein of Shewanella putrefaciens DSM 9451 reveals common structural and functional aspects of ferric–siderophore reduction” (Journal of Biological Inorganic Chemistry, 2025).

Legend:
[1] = target: T1, SbSIP (siderophore-interacting protein, flavin-containing siderophore reductase) (Shewanella bicestrii, UniProt A0A220UGT4); experiment: X-ray crystal structure, […] Å; assay type: binding
T1 construct: gene CF168_00510; Trx-His10 tag-free SbSIP; chains A and B, residues 1-3/247-251 and 1-5/249-251 not modelled
T1 sequence (A0A220UGT4 1-250): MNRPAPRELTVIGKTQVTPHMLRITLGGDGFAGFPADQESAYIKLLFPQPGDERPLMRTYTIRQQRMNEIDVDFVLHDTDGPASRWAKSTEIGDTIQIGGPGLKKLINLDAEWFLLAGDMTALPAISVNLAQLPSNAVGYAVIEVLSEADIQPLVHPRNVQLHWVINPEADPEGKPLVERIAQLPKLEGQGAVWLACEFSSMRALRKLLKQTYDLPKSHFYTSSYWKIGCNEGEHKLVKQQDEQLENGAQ

[2] = target: T2, SbSIP (siderophore-interacting protein, flavin-containing siderophore reductase) (Shewanella bicestrii, UniProt A0A220UGT4); experiment: […] NMR titration (slow exchange); assay type: binding
T2 construct: gene CF168_00510

[3] = target: T2, SbSIP (siderophore-interacting protein, flavin-containing siderophore reductase); experiment: […] NMR titration (fast exchange, chemical shift perturbation); assay type: binding
[4] = target: T2, SbSIP (siderophore-interacting protein, flavin-containing siderophore reductase); experiment: stopped-flow reduction of ferric siderophore by purified SbSIPsemi, […] nm; assay type: biochemical

Compound: Cc1cc2nc3c(=O)[nH]c(=O)nc-3n(C[C@H](O)[C@H](O)[C@H](O)COP(=O)(O)OP(=O)(O)OC[C@H]3O[C@@H](n4cnc5c(N)ncnc54)[C@H](O)[C@@H]3O)c2cc1C [FAD]
- X-ray crystal structure, 1.86 Å [1]: contained two SbSIP protein chains (A and B), each one bound to an FAD moiety

Compound: NC(=O)C1=CN([C@@H]2O[C@H](COP(=O)(O)OP(=O)(O)OC[C@H]3O[C@@H](n4cnc5c(N)ncnc54)[C@H](O)[C@@H]3O)[C@@H](O)[C@H]2O)C=CC1 [NADH]
- Kd [2]: 17 ± 5 µM

Compound: NC(=O)C1=CN([C@@H]2O[C@H](COP(=O)(O)OP(=O)(O)OC[C@H]3O[C@@H](n4cnc5c(N)ncnc54)[C@H](OP(=O)(O)O)[C@@H]3O)[C@@H](O)[C@H]2O)C=CC1 [NADPH]
- Kd [3]: 107 ± 2 µM

Compound: Fe(III)–bisucaberin
- stopped-flow reduction of ferric siderophore by purified SbSIPsemi, 600 nm [4]: 0.0014 ± 2 × 10^–4

Compound: Fe(III)–putrebactin
- stopped-flow reduction of ferric siderophore by purified SbSIPsemi, 600 nm [4]: 0.0031 ± 5 × 10^–5
